# From publication PMC7828231, “Delphinidin Increases the Sensitivity of Ovarian Cancer Cell Lines to 3-bromopyruvate” (International Journal of Molecular Sciences, 2021)
# Where two headings read alike, the source gives them in different places.
# Key:
# Format in all cases: cell-based, human
# MRC-5 fibroblasts = experiment: Cytotoxicity, Neutral Red survival assay
# Procedure: (§1) SKOV3 and PEO1 cells were seeded in a clear 96-well plate at a density of 1 × 10^4 cells/well in 100-µL culture medium. MRC-5 cells were seeded at a density of 7.5 × 10^3/well and allowed to attach for 24 h at 37 °C. After incubation, the cells were treated with delphinidin chloride in a concentration range of 10–100 µM and 3-BP at concentrations between 5–25 µM for PEO1 and 10–50 µM for MRC-5 and SKOV3. Nontreated cells were used as a control. Stock solutions of tested substances were prepared in DMSO and their working solutions in culture media. The DMSO concentration was adjusted to 0.2% in all samples, which had no significant effect on the treated cells. After 24-h exposure time, the medium was removed and replaced with 100 µL of […] neutral red solution, and the cells were incubated at 37 °C for 1 h. Then, the cells were washed with PBS; fixed with 100 µL/well of 50% ethanol, 49% H2O and 1% glacial acetic acid and shaken (700 rpm) at room temperature for 20 min. Absorbance was measured at 540 nm against 620 nm.
# SKOV3 cells [1] = experiment: Cytotoxicity, Neutral Red survival assay; conditions: read-out: IC50 of cell survival
# Procedure: as §1
# PEO1 cells [2] = experiment: Cytotoxicity, Neutral Red survival assay; conditions: read-out: IC50 of cell survival
# Procedure: as §1
# SKOV3 cells [3] = experiment: Mitochondrial mass (NAO); conditions: 25-µM D, 40 µM 3-BP, 24 h
# Procedure: (§2) Cells were seeded at the density of 2 × 10^5 cells/well onto a 24-well plate and cultured as stated before. Following 24-hour exposure to the studied compounds, the cells were trypsinized, counted and transferred to separate Eppendorf tubes, and then centrifuged for 6 minutes at 3000 rpm. Subsequently the supernatant was discharged and the cells were washed with 1 mL of PBS and centrifuged again. Afterwards, 1 mL of 10 μM NAO solution in PBS was added into the samples, and incubated for 10 min in a CO2 incubator at 37 °C. Next, the cells were centrifuged and the pellet was washed with PBS, and resuspended in 300 μL of PBS. Each sample was transferred into a 96-well black plate (100 μL/well; 3 repetitions). Fluorescence was measured at 435/535 nm. The results were determined in relation to the cell count.
# PEO1 cells [4] = experiment: Mitochondrial mass (NAO); conditions: 25-µM D, 20 µM 3-BP, 24 h
# Procedure: as §2
# SKOV3 cells [5] = experiment: Atto-488-phalloidin and Mitotracker labeling (confocal); conditions: 25-µM D, 40-µM 3-BP, 24 h
# Procedure: (§3) Cells were seeded on an 8-well chamber slide (Lab-Tek™ II Chamber Slide™ System cat. no. 154534, Thermo Scientific, Waltham, MA, USA) at a density of 2.5 × 10^4 cells/chamber and allowed to attach at 37 °C. Subsequently, PEO1 and SKOV3 cells were treated with 25-µM D, 20-µM or 40-µM 3-BP (depending on the cell line) or both substances together for 24 h. Following the treatment, the medium was removed and replaced with 200-nM solution of Mitotracker Deep Red FM (i) (cat. no. M22426, Thermo Scientific, Waltham, MA, USA) in PBS and incubated for 30 min; in a CO2 incubator, the cells were washed with PBS (300 μL/well) and fixed with 200-μL/well 3.7% formaldehyde for 10 min. Then, the cells were washed with PBS (200 μL/well), permeabilized with 0.1% Triton X-100 solution (200 μL/well) for 10 min and washed with PBS (700 μL/well).
# (§4) Following the treatment, the medium was removed and replaced with 150 μL/well of phalloidin working solution (ii) (prepared according to the manufacturer’s protocols) and incubated for 60 min.
# (§5) After staining i or ii, the fixed cells were washed again, 600-nM solution of DAPI in PBS was added (200 µL/well), the cells were incubated at room temperature for 60 minutes and their micrographs were taken using a Zeiss LSM 710 inverted confocal microscope (Oberkochen, Germany). The ratio of fluorescence intensity of the mitochondria and cytoskeleton (expressed as a mean gray value) was calculated using ImageJ software. The corrected total cell fluorescence (CTFT) per cell was calculated according to https://theolb.readthedocs.io/en/latest/imaging/measuring-cell-fluorescence-using-imagej.html.
# PEO1 cells [6] = experiment: as above; conditions: 24 h
# Procedure: as §3, §4, §5
# PEO1 cells [7] = experiment: Apoptosis and necrosis assay (RealTime-Glo Annexin V); conditions: after 24 h
# Procedure: The levels of apoptosis and necrosis were assayed using the RealTime-Glo™ Annexin V Apoptosis and Necrosis Assay. Cells were seeded into a white 96-well plate with optical bottom, cultured and treated adequately, as stated above. After 24 h, 100 μL of the freshly prepared reagent was added to each well according to the manufacturer’s protocols. The fluorescence and luminescence were measured according to the protocols.
# SKOV3 cells [8] = experiment: Cell migration (scraped area closure)
# Procedure: Ovarian cancer cells and human normal fibroblasts were seeded on a 24-well plate at a density of 7 × 10^4/well (PEO1), 6.5 × 10^4/well (SKOV3) and 6 × 10^4/well (MRC-5) in 700 µL of appropriate cell medium and cultured at 37 °C to reach 90–95% confluence. Then, the cells in the middle of the wells were scraped off using sterile pipette tips (100 µL), cell debris was removed by washing with medium containing 2% FBS and the tested compounds diluted with medium containing 2% FBS were added. Images of the scraped area were collected after 12 h and 24 h at 10× objective magnification using an Olympus CKX53 microscope with a U-TV0. 5XC-3 digital microscope camera. The obtained results were analyzed using ImageJ software. The percentage of scraped area closure was estimated as the ratio of area measured after 12- or 24-h incubation and the area at the beginning of the experiment.
SMILES,survival / viability of MRC-5 fibroblasts (MRC-5 fibroblasts; up to 100 µM),"IC50 (SKOV3 cells [1]; Homo sapiens, SK-OV-3, 24 h, SKOV3, 24-h exposure, Neutral Red, ND = no reduction of survival in the concentration range studied) [µM]","IC50 (SKOV3 cells [1]; SKOV3, 24-h exposure, Neutral Red, ND = no reduction of survival in the concentration range studied) [µM]","IC50 (PEO1 cells [2]; Homo sapiens, PEO1, 24 h, PEO1, 24-h exposure, Neutral Red, ND = no reduction of survival in the concentration range studied) [µM]","IC50 (PEO1 cells [2]; PEO1, 24-h exposure, Neutral Red, ND = no reduction of survival in the concentration range studied) [µM]",mitochondrial mass (SKOV3 cells [3]),mitochondrial mass (PEO1 cells [4]),decrease in the intensity of staining with Atto-488-phalloidin with respect to the control (SKOV3 cells [5]),decrease in the intensity of staining with Mitotracker Red with respect to the control (SKOV3 cells [5]),"decrease in the intensity of staining with Atto-488-phalloidin with respect to the control (PEO1 cells [6]; 25-µM D, 20-µM 3-BP) [%]",increase in the intensity of staining with Mitotracker Red with respect to the control (PEO1 cells [6]; 25-µM D),induction of necrosis (PEO1 cells [7]),cell migration (SKOV3 cells [8]),survival of MRC-5 fibroblasts (MRC-5 fibroblasts; up to a concentration of 50 µM),"IC50 (SKOV3 cells [1]; Homo sapiens, SK-OV-3, 24 h) [µM]","IC50 (PEO1 cells [2]; Homo sapiens, PEO1, 24 h) [µM]",increase in the intensity of staining with Atto-488-phalloidin with respect to the control (PEO1 cells [6]; 20-µM 3-BP) [%],"decrease in the intensity of staining with Mitotracker Red with respect to the control (PEO1 cells [6]; 25-µM D, 20-µM 3-BP)"
"Oc1cc(O)c2cc(O)c(-c3cc(O)c(O)c(O)c3)[o+]c2c1 [Delphinidin chloride, 3,3′,4′,5,5′,7-hexahydroxyflavylium]",did not affect,< 100,57.5,< 100,71.5,decreased,increased,~67%,~94%,~17,about 7%,considerable induction of necrosis,decreased,–,–,–,–,–
"O=C(O)C(=O)CBr [3-BP, 3-bromopyruvic acid]",–,–,–,–,–,increased,increased,about 33%,about 39%,–,–,considerable induction of necrosis,decreased,not compromised,40.5,18.7,~51,about 7%
